The text below walks through data of patent US9399017B2, “Peptide pharmaceutical for oral delivery” (Enteris BioPharma, Inc., priority 2007, dated 2016).

Data set [1] in a line: Plasma sCT Cmax in Beagle dogs after oral tablet (ELISA). The format is in vivo. The note with it: for Cmax: Beagle, dog, plasma, po, 1.7 mg, oral tablet 1.7 mg sCT. As to the method:
Following application of the indicated amounts of HPMC to the indicated weight gain (in those examples utilizing the undercoat), the tablets were then sealed with an enteric coat made of Eudragit L30D-55 to the indicated further weight gain. Beagle dogs were given a tablet of the indicated combination of undercoat-enteric coat and aliquots of blood were taken at 15 minute intervals for 4 hours. Plasma was separated from the blood samples and analyzed for sCT by ELISA.
(In general: ELISA stands for enzyme-linked immunosorbent assay.)

For data set [2] the following is noted: cited from earlier work.

`CC(C)C[C@H](NC(=O)[C@H](CCCCN)NC(=O)CNC(=O)[C@H](CC(C)C)NC(=O)[C@@H](NC(=O)[C@@H]1CSSC[C@H](N)C(=O)N[C@@H](CO)C(=O)N[C@@H](CC(N)=O)C(=O)N[C@@H](CC(C)C)C(=O)N[C@@H](CO)C(=O)N[C@@H]([C@@H](C)O)C(=O)N1)C(C)C)C(=O)N[C@@H](CO)C(=O)N[C@@H](CCC(N)=O)C(=O)N[C@@H](CCC(=O)O)C(=O)N[C@@H](CC(C)C)C(=O)N[C@@H](Cc1c[nH]cn1)C(=O)N[C@@H](CCCCN)C(=O)N[C@@H](CC(C)C)C(=O)N[C@@H](CCC(N)=O)C(=O)N[C@H](C(=O)N[C@@H](Cc1ccc(O)cc1)C(=O)N1CCC[C@H]1C(=O)N[C@@H](CCCNC(=N)N)C(=O)N[C@H](C(=O)N[C@@H](CC(N)=O)C(=O)N[C@H](C(=O)NCC(=O)N[C@@H](CO)C(=O)NCC(=O)N[C@H](C(=O)N1CCC[C@H]1C(N)=O)[C@@H](C)O)[C@@H](C)O)[C@@H](C)O)[C@@H](C)O` [sCT, salmon calcitonin]: the Cmax (in general, the highest concentration seen after dosing) in data set [1] (HPMC undercoat 0%, L30D-55 enteric coat 4% tablet weight gain) amounted to 0.07 ng/mL; in data set [1] (HPMC undercoat 0%, L30D-55 enteric coat 7% tablet weight gain), 0.121 ng/mL; in data set [1] (HPMC undercoat 3%, L30D-55 enteric coat 4% tablet weight gain), 0.142 ng/mL; in data set [1] (HPMC undercoat 3%, L30D-55 enteric coat 7% tablet weight gain), 0.378 ng/mL; in data set [1] (HPMC undercoat 6%, L30D-55 enteric coat 4% tablet weight gain), 0.667 ng/mL; in data set [1] (HPMC undercoat 6%, L30D-55 enteric coat 7% tablet weight gain) it was 0.51 ng/mL. In data set [1] (absence of an undercoat), the “increase of sCT Cmax when amount of enteric coat was increased nearly 1.75 fold” value was 1.7 fold. In addition, the “increase of sCT Cmax when an HPMC undercoat was included” value in data set [1] (one embodiment) is listed as “more than 9 fold”. In addition, the “time after injection beyond which there are usually no detectable blood levels” value in data set [2] (injection at conventional dosages) is given as “more than two”. Also, in data set [2] (patients), the “peak levels at which some patients report side-effects such as flushing nausea” value is reported as not below 200 picograms per milliliter. Further, the half-life (commonly the time in which the quantity being followed falls by half) in data set [2] (subcutaneous administration in man) was 20 to 40 min. Besides, the peak serum concentration result in data set [2] (subcutaneous administration, 100 International units) is recorded as “about 250 picograms per milliliter”.
